In US20260209215A1, “GLYCINE DERIVATIVES WITH P2X4 RECEPTOR-BLOCKING ACTIVITY AS DIAGNOSTICS AND FOR THE TREATMENT OF PAIN, INFLAMMATION, CANCER, AND OTHER P2X4 RECEPTOR-RELATED DISEASES” (RHEINISCHE-FRIEDRICH-WILHELMS-UNIVERSITÄT BONN, priority 2022, published 2026):

Molecular target: T1, P2X4 receptor (Homo sapiens, UniProt Q99571)
T1 construct: expressed in transfected cells; host or cells: 1321N1 astrocytoma cells, retroviral vector pQCXIN, G418 selection, monoclones
T1 sequence (Q99571 1-388): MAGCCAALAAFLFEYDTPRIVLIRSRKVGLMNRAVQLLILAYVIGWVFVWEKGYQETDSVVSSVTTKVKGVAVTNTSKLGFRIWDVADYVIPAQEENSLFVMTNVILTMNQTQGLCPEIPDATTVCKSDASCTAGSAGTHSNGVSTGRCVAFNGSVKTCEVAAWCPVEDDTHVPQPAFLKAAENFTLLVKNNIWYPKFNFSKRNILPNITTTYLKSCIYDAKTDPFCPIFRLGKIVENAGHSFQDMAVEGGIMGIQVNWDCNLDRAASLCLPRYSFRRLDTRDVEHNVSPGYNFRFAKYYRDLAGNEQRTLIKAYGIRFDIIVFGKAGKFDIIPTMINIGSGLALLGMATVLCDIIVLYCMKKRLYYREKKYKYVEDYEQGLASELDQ
Test: Measurement of Ca2+ influx in transfected 1321N1 astrocytoma cells (P2X4 inhibitory potency)
Format: cell-based
Conditions: agonist-mediated Ca2+ influx, FLUO-4, 1321N1 astrocytoma cells; antagonists added 30 min before agonist
Description: The rat, mouse, and human P2X4 DNA, respectively, were cloned into the retroviral vector pQCXIN. 1321N1 Astrocytoma cells were transfected with the DNA using a retroviral system as described previously. In brief, GP+envAM12 packaging cells were first transiently co-transfected with a retroviral vector to generate the retrovirus and with a vesicular stomatitis virus G protein (VSV-G) to pseudotype the virus and to increase their infection efficiency. The viruses containing the rat, mouse or human P2X4 receptor sequence were then used to create a stable astrocytoma cell line. P2X4 receptor-expressing cells were selected with G418 ([…]).
The selection of monoclones for rat and human P2X4 receptors was performed using the limited dilution method by plating the cells at very low cell densities (1 cell clone per well in 96-well plates). Cells were counted, and then several dilutions were made to obtain a concentration of […]. We subsequently added 100 µL of the diluted cell suspension into each well expecting to obtain on average 1 cell per well. After a few days the wells that contained single clones were labeled and transferred into 24 well plates. More than 20 clones were selected for each cell line and characterized in calcium influx assay.
Measurement of Ca^2+ influx in transfected 1321N1 astrocytoma cells
P2X receptor function was determined on the basis of agonist-mediated increases in cytosolic Ca^2+ concentration. The fluorescent Ca^2+chelating dye FLUO-4 was used as an indicator of the relative levels of intracellular Ca^2+ in a 96-well format using a fluorescence imaging plate reader (Novostar, BMG, Germany). Cells were grown to confluence in 96-well black-walled tissue culture plates and loaded with FLUO-4 AM ([…]) in Hank's balanced salt solution (HBSS, containing 10 mM HEPES, pH 7.3, and 1% Pluronic® F127) for 1 h at 23° C. After incubation, the loaded cells were washed with the same buffer to remove extracellular FLUO-4 AM. Compound solutions were prepared in HBSS (containing 20 mM HEPES, pH 7.3) or DMSO depending on their solubility. […] Fluorescence intensity was measured at 520 nm for 30 s at 0.4 s intervals. Buffer or test compounds were injected sequentially into separate wells using the automatic pipetting device. At least three independent experiments were performed in triplicate or duplicate. Antagonists were added 30 min before the addition of agonists. The assays were performed in a final volume of 200 μL. Compounds were tested at 7-8 different concentrations spanning three orders of magnitude of concentrations. Statistical significances were calculated using the unpaired two-tailed t-test.

With “2-((2-methyl-5-(3-methyl- 1,2,4-oxadiazol-5-yl) phenyl)amino)-1-(1H- pyrrolo[2,3-b]pyridin-3- yl)ethan-1-one [Example 107]” the IC50 was 70 to 99 nM.
Work on `Cc1nsc(-c2ccc(C)c(NCC(=O)N3CCc4c3cccc4C(C)(O)CO)c2)n1` (racemic) [Example 62, 1-(4-(1,2-dihydroxypropan-2-yl)indolin-1-yl)-2-((2-methyl-5-(3-methyl-1,2,4-thiadiazol-5-yl)phenyl)amino)ethan-1-one] yielded an IC50 of 0.1 to 19 nM.
`Cc1nsc(-c2cc(NCC(=O)N3CCc4c3cc(Br)cc4[C@@](C)(O)CO)c(C)cc2Br)n1` (stereo in doubt) [Example 123, 2-((4-bromo-2-methyl-5-(3-methyl-1,2,4-thiadiazol-5-yl)phenyl)amino)-1-(6-bromo-4-(1,2-dihydroxypropan-2-yl)indolin-1-yl)ethan-1-one] was tested, and the IC50 was > 100 nM.
`COc1cccc2c1CCN2C(=O)CNc1cc(-c2nc(C)ns2)ccc1C` [Example 1, 1-(4-methoxyindolin-1-yl)-2-((2-methyl-5-(3-methyl-1,2,4-thiadiazol-5-yl)phenyl)-amino)ethan-1-one] was tested, and the IC50 was 0.1 to 19 nM.
With `COc1cccc2c1CCN2C(=O)CNc1cc(-c2nc(C)no2)ccc1C` [Example 2, 1-(4-methoxyindolin-1-yl)-2-((2-methyl-5-(3-methyl-1,2,4-oxadiazol-5-yl)phenyl)-amino)ethan-1-one] the IC50 was 0.1 to 19 nM.
Work on `CCc1noc(-c2ccc(F)c(NCC(=O)N3CCc4cc(OC)c(F)cc43)c2)n1` [Example 3, 2-((5-(3-ethyl-1,2,4-oxadiazol-5-yl)-2-fluorophenyl)amino)-1-(6-fluoro-5-methoxyindolin-1-yl)ethan-1-one] yielded an IC50 of 20 to 39 nM.
`COc1ccc(-c2nc(C)ns2)cc1NCC(=O)N1CCc2c(OC)cccc21` [Example 4, 2-((2-methoxy-5-(3-methyl-1,2,4-thiadiazol-5-yl)phenyl)-amino)-1-(4-methoxyindolin-1-yl)ethan-1-one] showed an IC50 of 20 to 39 nM.
`CCn1nnc(-c2ccc(OC)c(NCC(=O)N3CCc4c(OC)cccc43)c2)n1` [Example 5, 2-((5-(2-ethyl-2H-tetrazol-5-yl)-2-methoxyphenyl)amino)-1-(4-methoxyindolin-1-yl)ethan-1-one] was tested, and the IC50 was 20 to 39 nM.
Work on `COc1ccc(-c2nc(C)ns2)cc1NCC(=O)n1ccc2cc(F)ccc21` [Example 6, 1-(5-fluoro-1H-indol-1-yl)-2-((2-methoxy-5-(3-methyl-1,2,4-thiadiazol-5-yl)phenyl)amino-) ethan-1-one] yielded an IC50 of 70 to 99 nM.
With `CCc1noc(-c2ccc(OC)c(NCC(=O)N3CCc4ccc(C(F)(F)F)cc43)c2)n1` [Example 7, 2-(5-(3-ethyl-1,2,4-oxadiazol-5-yl)-2-methoxyphenylamino)-1-(6-(trifluoromethyl)indolin-1-yl)ethanone] the IC50 was > 100 nM.
`COc1cccc2c1CCN2C(=O)CNc1cc(-c2nc(C)ns2)cc(F)c1OC` [Example 8, 2-((3-fluoro-2-methoxy-5-(3-methyl-1,2,4-thiadiazol-5-yl)phenyl)amino)-1-(4-methoxyindolin-1-yl) ethan-1-one] gave an IC50 of 70 to 99 nM.
Work on `CCc1noc(-c2ccc(OC)c(NCC(=O)N3CCc4ccc(Br)cc43)c2)n1` [Example 9, 1-(6-bromoindolin-1-yl)-2-((5-(3-ethyl-1,2,4-oxadiazol-5-yl)-2-methoxyphenyl)amino) ethan-1-one] yielded an IC50 of 40 to 69 nM.
`Cc1nsc(-c2ccc(C)c(NCC(=O)N3CCc4nc(Cl)ccc43)c2)n1` [Example 10, 1-(5-chloro-2,3-dihydro-1H-pyrrolo[3,2-b]pyridin-1-yl)-2-((2-methyl-5-(3-methyl-1,2,4-thiadiazol-5-yl)phenyl)amino)ethan-1-one] gave an IC50 of 70 to 99 nM.
For `CCc1noc(-c2ccc(OC)c(NCC(=O)N3CCc4nc(OC)ccc43)c2)n1` [Example 11, 2-((5-(3-ethyl-1,2,4-oxadiazol-5-yl)-2-methoxyphenyl)amino)-1-(5-methoxy-2,3-dihydro-1H-pyrrolo[3,2-b]pyridin-1-yl)ethan-1-one], the IC50 was 20 to 39 nM.
`Cc1nsc(-c2ccc(C)c(NCC(=O)N3CCc4c(OCC(C)(C)O)cccc43)c2)n1` [Example 12, 1-(4-(2-hydroxy-2-methylpropoxy)indolin-1-yl)-2-((2-methyl-5-(3-methyl-1,2,4-thiadiazol-5-yl)phenyl)amino)] was tested, and the IC50 was 0.1 to 19 nM.
With `Cc1nsc(-c2ccc(C)c(NCC(=O)N3CCc4c3cccc4N3C(=O)CCS3(=O)=O)c2)n1` [Example 13, 2-(1-((2-methyl-5-(3-methyl-1,2,4-thiadiazol-5-yl)phenyl)glycyl)indolin-4-yl) isothiazolidin-3-one 1,1-dioxide] the IC50 was 0.1 to 19 nM.
In the case of `Cc1ccc(-c2nc(Br)ns2)cc1NCC(=O)N1CCc2c(OCC(C)(C)O)cccc21` [Example 14], the IC50 is reported as 0.1 to 19 nM.
`C#Cc1nsc(-c2ccc(C)c(NCC(=O)N3CCc4c(OC)cccc43)c2)n1` [Example 15, 2-((5-(3-ethynyl-1,2,4-thiadiazol-5-yl)-2-methylphenyl)amino)-1-(4-methoxyindolin-1-yl)ethan-1-one] was tested, and the IC50 was 0.1 to 19 nM.
`Cc1nsc(-c2ccc(C)c(NCC(=O)N3CCc4c(OCCCO)cccc43)c2)n1` [Example 16, 1-(4-(3-hydroxypropoxy)indolin-1-yl)-2-((2-methyl-5-(3-methyl-1,2,4-thiadiazol-5-yl)phenyl)amino) ethan-1-one] was tested, and the IC50 was 0.1 to 19 nM.
`Cc1nsc(-c2ccc(C)c(NCC(=O)N3CCc4c3cccc4N3C(=O)CCC3=O)c2)n1` [Example 17, 1-(1-((2-methyl-5-(3-methyl-1,2,4-thiadiazol-5-yl)phenyl)glycyl)indolin-4-yl) pyrrolidine-2,5-dione] showed an IC50 of 0.1 to 19 nM.
`C=Cc1nsc(-c2ccc(C)c(NCC(=O)N3CCc4c(OCCOCCO)cccc43)c2)n1` [Example 18, 1-(4-(2-(2-hydroxyethoxy)ethoxy)indolin-1-yl)-2-((2-methyl-5-(3-vinyl-1,2,4-thiadiazol-5-yl)phenyl)amino) ethan-1-one] gave an IC50 of 0.1 to 19 nM.
`CCc1nsc(-c2ccc(C)c(NCC(=O)N3CCc4c(OCCOCCO)cccc43)c2)n1` [Example 19, 2-((5-(3-ethyl-1,2,4-thiadiazol-5-yl)-2-methylphenyl)amino)-1-(4-(2-(2-hydroxyethoxy)ethoxy)indolin-1-yl)ethan-1-one] gave an IC50 of 0.1 to 19 nM.
`CCc1nsc(-c2ccc(C)c(NCC(=O)N3CCc4c(NS(C)(=O)=O)cccc43)c2)n1` [Example 20, N-(1-((5-(3-ethyl-1,2,4-thiadiazol-5-yl)-2-methylphenyl)glycyl)indolin-4-yl) methanesulfonamide] showed an IC50 of 0.1 to 19 nM.
Compound `CCc1nsc(-c2ccc(F)c(NCC(=O)N3CCc4c(C(C)O)cccc43)c2)n1` (centres unmarked) [Example 21, 2-((5-(3-ethyl-1,2,4-thiadiazol-5-yl)-2-fluorophenyl)amino)-1-(4-(1-hydroxyethyl)indolin-1-yl)ethan-1-one] has an IC50 of 0.1 to 19 nM.
With `Cc1nsc(-c2ccc(C)c(NCC(=O)N3CCc4c3cccc4C(C)(C)O)c2)n1` [Example 22, 1-(4-(2-hydroxypropan-2-yl)indolin-1-yl)-2-((2-methyl-5-(3-methyl-1,2,4-thiadiazol-5-yl)phenyl)amino)ethan-1-one] the IC50 was 0.1 to 19 nM.
`Cc1nsc(-c2ccc(C)c(NCC(=O)N3CCc4c(N5CCC6(CC5)COC6)cccc43)c2)n1` [Example 23, 1-(4-(2-oxa-7-azaspiro[3.5]nonan-7-yl)indolin-1-yl)-2-((2-methyl-5-(3-methyl-1,2,4-thiadiazol-5-yl)phenyl)-amino)ethan-1-one] was tested, and the IC50 was 0.1 to 19 nM.
